What all share (format): functional
One test deals with Lu1. Briefly: Cytotoxicity against human Lu1 cells after 3 days by sulforhodamine B assay. Conditions: Lu1, 72 h, read-out: ED50 (the source's name).
The next test relates to LNCaP. Briefly: Cytotoxicity against human LNCAP cells after 3 days by sulforhodamine B assay. Conditions: 72 h, read-out: ED50 (the source's name).
The next test relates to KB. Briefly: Cytotoxicity against human KB cells after 3 days by sulforhodamine B assay. Conditions: 72 h, read-out: ED50 (the source's name).
Another test relates to HT. The experiment in a line: Cytotoxicity against human HT cells after 3 days by sulforhodamine B assay. Conditions: 72 h, read-out: ED50 (the source's name).
Test [1] in a line: Cytotoxicity against human KBV1 cells after 3 days by sulforhodamine B assay. The conditions noted are these: KB-V1, 72 h, read-out: ED50 (the source's name).
In a further test the test system is A-431. The experiment in a line: Cytotoxicity against human A431 cells after 3 days by sulforhodamine B assay. Conditions: A-431, 72 h, read-out: ED50 (the source's name).
Another test relates to SK-MEL-2. Briefly: Cytotoxicity against human SK-MEL-2 cells after 3 days by sulforhodamine B assay. Conditions: SK-MEL-2, 72 h, read-out: ED50 (the source's name).
The subject of a further test is Col2. The experiment in a line: Cytotoxicity against human Col2 cells after 3 days by sulforhodamine B assay. Conditions: Col2, 72 h, read-out: ED50 (the source's name).
The test system of another test is P388. Briefly: Cytotoxicity against mouse P388 cells after 3 days by sulforhodamine B assay. The conditions noted are these: P388, 72 h, read-out: ED50 (the source's name).
The test system of a further test is ZR-75-1. The experiment in a line: Cytotoxicity against human ZR-75-1 cells after 3 days by sulforhodamine B assay. The conditions noted are these: ZR-75-1, 72 h, read-out: ED50 (the source's name).
The nature of test [2]: Cytotoxicity against human BC1 cells after 3 days by sulforhodamine B assay. Conditions: BC1, 72 h, read-out: ED50 (the source's name).

Our source for the EC50 values is ChEMBL document CHEMBL1147362, “Cytotoxicity of Hymenocallis expansa alkaloids” (1993).

In brackets after ≈: the same amount, converted by molar mass. Where only a bound is given, the exact number is not on record here.

For `CN1CCC2=C[C@H](O)[C@H]3OC(=O)c4cc5c(cc4[C@H]3[C@@H]21)OCO5`, the EC50 is 5.2 µg/mL (≈ 16.5 µM) in the test with Lu1; 1.8 µg/mL (≈ 5.71 µM) in the test with LNCaP; more than 20 µg/mL in the test with KB; 4.7 µg/mL (≈ 14.9 µM) with HT; more than 20 µg/mL in [1]; 6.3 µg/mL (≈ 20 µM) in the test on A-431. Besides, the EC50 is more than 20 µg/mL in the test on SK-MEL-2; 7.8 µg/mL (≈ 24.7 µM) in the test with Col2; 4 µg/mL (≈ 12.7 µM) with P388; 7.3 µg/mL (≈ 23.2 µM) with ZR-75-1; more than 20 µg/mL in test [2].
On to `CO[C@@H]1C=C[C@@]23c4cc5c(cc4CO[C@]2(O)CN(C)[C@H]3C1)OCO5` [TAZETTINE], for which the EC50 is 11.1 µg/mL (≈ 33.5 µM) in the test on Lu1; 5.9 µg/mL (≈ 17.8 µM) in the test with LNCaP; 7.3 µg/mL (≈ 22 µM) with KB; 11.8 µg/mL (≈ 35.6 µM) with HT; more than 20 µg/mL in [1]; 11.1 µg/mL (≈ 33.5 µM) in the test with A-431. Also, the EC50 in the test on SK-MEL-2 is 12.9 µg/mL (≈ 38.9 µM); in the test on Col2, 5 µg/mL (≈ 15.1 µM); with P388 it was 1 µg/mL (≈ 3.02 µM); with ZR-75-1, 6.9 µg/mL (≈ 20.8 µM); in test [2] it was more than 20 µg/mL.
On to `CO[C@@H]1C=C[C@@]23c4cc5c(cc4[C@H](O)N(C[C@@H]2O)[C@H]3C1)OCO5`, for which the EC50 was 2.1 µg/mL (≈ 6.62 µM) with Lu1; 0.7 µg/mL (≈ 2.21 µM) in the test on LNCaP; 3.6 µg/mL (≈ 11.3 µM) in the test with KB; 1.6 µg/mL (≈ 5.04 µM) in the test on HT; 8.4 µg/mL (≈ 26.5 µM) in [1]; 3 µg/mL (≈ 9.45 µM) with A-431. Besides, the EC50 is 1.9 µg/mL (≈ 5.99 µM) with SK-MEL-2; 6 µg/mL (≈ 18.9 µM) in the test with Col2; 0.4 µg/mL (≈ 1.26 µM) with P388; 2.6 µg/mL (≈ 8.19 µM) in the test on ZR-75-1; more than 20 µg/mL in [2].
